Source: US8399465B2, “Compounds with two fused bicyclic heteroaryl moieties as modulators of leukotriene A4 hydrolase” (Janssen Pharmaceutica NV, priority 2009, dated 2013)
pIC50: −log10 of the molar value. Counter-ions that a name gives are not always drawn.

Experiments:
[1] = molecular target: T1, recombinant human LTA4 hydrolase (rhLTA4H) (Homo sapiens, UniProt P09960); assay: Recombinant human LTA4 hydrolase assay for LTA4 hydrolase inhibitor activity; type: biochemical; settings: rhLTA4H, LTB4 by immunoassay; single determination or average of two or more; mark after value = form tested: ′ free base, ″ hydrochloride, ^ formate; read-out: IC50
T1 construct: made in house; host or cells: Spodoptera frugiperda (Sf-9) cells, baculovirus (pFastBac1)
T1 sequence (P09960 1-611): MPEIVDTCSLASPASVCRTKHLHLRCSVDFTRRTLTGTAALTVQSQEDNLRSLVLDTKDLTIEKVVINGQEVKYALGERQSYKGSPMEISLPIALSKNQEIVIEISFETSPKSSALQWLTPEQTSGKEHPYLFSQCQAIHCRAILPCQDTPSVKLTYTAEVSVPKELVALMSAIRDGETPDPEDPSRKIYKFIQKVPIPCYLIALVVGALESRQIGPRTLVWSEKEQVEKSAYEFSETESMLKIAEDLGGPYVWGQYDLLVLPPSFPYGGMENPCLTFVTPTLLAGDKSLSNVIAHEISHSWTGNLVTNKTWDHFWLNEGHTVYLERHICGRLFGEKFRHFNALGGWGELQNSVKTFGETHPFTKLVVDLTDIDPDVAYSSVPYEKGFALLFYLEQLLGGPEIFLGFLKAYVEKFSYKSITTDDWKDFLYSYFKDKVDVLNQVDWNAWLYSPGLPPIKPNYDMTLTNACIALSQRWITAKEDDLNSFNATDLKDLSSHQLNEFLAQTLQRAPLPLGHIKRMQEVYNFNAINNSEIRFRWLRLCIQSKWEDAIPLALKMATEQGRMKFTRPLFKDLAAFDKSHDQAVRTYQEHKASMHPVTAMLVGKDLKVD
Method in brief: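 Baculovirus/Sf-9-expressed human LTA4H (10 ng) was preincubated 10 min at rt with compound in assay buffer (10% DMSO in compound dilution), then reacted 30 min at rt with LTA4 free acid made from its methyl ester. LTB4 produced was measured by ELISA after dilution; IC50 from non-linear regression, single or averaged determinations.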

[2] = tested on: LTB4 production in murine blood (LTA4H); assay: LTB4 production by calcium ionophore-stimulated murine blood for LTA4H inhibitor activity; type: cell-based, CD-1 mice; settings: Mus musculus; murine blood diluted 1 in 15, A23187 stimulated; single determination or average; mark after value = form tested: ′ free base, ″ hydrochloride, ^ formate; read-out: IC50
Method in brief: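 Heparinized blood from CD-1 mice was preincubated with compound for 15 min at 37° C, then stimulated with calcium ionophore A23187 (final 7 μg/mL) for 30 min. Centrifugation stopped the reaction, and LTB4 in the supernatant was measured by enzyme immunoassay. Values are single determinations or means of two or more.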

Row | SMILES | pIC50 [1] | pIC50 [2]
1 | OC1(c2ccccc2)CCN(Cc2coc3cc(Oc4nc5ncccc5s4)ccc23)CC1 [Example 275, 4-Phenyl-1-[6-(thiazolo[4,5-b]pyridin-2-yloxy)-benzofuran-3-ylmethyl]-piperidin-4-ol] | 8.70 | 7.47
2 | CC(=O)N1CCN(CC(=O)NCc2coc3cc(Oc4nc5ncccc5s4)ccc23)CC1 [Example 390, 2-(4-Acetyl-piperazin-1-yl)-N-[6-(thiazolo[4,5-b]pyridin-2-yloxy)-benzofuran-3-ylmethyl]-acetamide] | 7.57 | 6.57
3 | CN(C)Cc1coc2cc(Oc3nc4ncccc4s3)ccc12 [Example 361, Dimethyl-[6-(thiazolo[4,5-b]pyridin-2-yloxy)-benzofuran-3-ylmethyl]-amine] | 7.70 | 8.00
4 | CC1CN(Cc2coc3cc(Oc4nc5ncccc5s4)ccc23)CC(C)O1 (stereo not shown) [Example 349, 2-[3-(2,6-Dimethyl-morpholin-4-ylmethyl)-benzofuran-6-yloxy]-thiazolo[4,5-b]pyridine] | 7.59 | 6.07
5 | CC(C)(C)C1CCN(Cc2coc3cc(Oc4nc5ncccc5s4)ccc23)CC1 [Example 302, 2-[3-(4-tert-Butyl-piperidin-1-ylmethyl)-benzofuran-6-yloxy]-thiazolo[4,5-b]pyridine formate] | 7.70 | 7.11
6 | c1ccc2sc(Oc3ccc4[nH]c(CN5CCCCC5)cc4c3)nc2c1 [Example 65, 2-(2-Piperidin-1-ylmethyl-1H-indol-5-yloxy)-benzothiazole] | 7.00 | 5.95
7 | c1ccc2sc(Oc3cnc4c(CN5CCOCC5)c[nH]c4c3)nc2c1 [Example 32, 2-(3-Morpholin-4-ylmethyl-1H-pyrrolo[3,2-b]pyridin-6-yloxy)-benzothiazole] | 7.02 | 6.59
8 | NC(=O)N[C@@H]1C[C@H]2CC[C@@H](C1)N2Cc1coc2cc(Oc3nc4ncccc4s3)ccc12 [Example 207, meso-exo-{8-[6-(Thiazolo[4,5-b]pyridin-2-yloxy)-benzofuran-3-ylmethyl]-8-aza-bicyclo[3.2.1]oct-3-yl}-urea] | 9.00 | 6.80
9 | CC(=O)N[C@H]1C[C@H]2CC[C@@H](C1)N2Cc1c[nH]c2cc(Oc3nc4cccnc4s3)ccc12 [Example 43, meso-endo-N-{8-[6-(Thiazolo[5,4-b]pyridin-2-yloxy)-1H-indol-3-ylmethyl]-8-aza-bicyclo[3.2.1]oct-3-yl}-acetamide] | 8.22 | 6.39
10 | NC(=O)N1C[C@@H]2C[C@H]1CN2C(=O)c1coc2cc(Oc3nc4ncccc4s3)ccc12 [Example 375, (1S,4S)-5-[6-(Thiazolo[4,5-b]pyridin-2-yloxy)-benzofuran-3-carbonyl]-2,5-diaza-bicyclo[2.2.1]heptane-2-carboxylic acid amide] | 7.39 | 6.21
11 | O=C(O)CN[C@H]1C[C@H]2CC[C@@H](C1)N2Cc1cc2ccc(Oc3nc4ccccc4s3)cc2o1 [Example 81, meso-endo-{8-[6-(Benzothiazol-2-yloxy)-benzofuran-2-ylmethyl]-8-aza-bicyclo[3.2.1]oct-3-ylamino}-acetic acid] | 7.54 | 6.35
12 | c1csc(CN2CCN(Cc3coc4cc(Oc5nc6ncccc6s5)ccc34)CC2)c1 [Example 325, 2-[3-(4-Thiophen-2-ylmethyl-piperazin-1-ylmethyl)-benzofuran-6-yloxy]-thiazolo[4,5-b]pyridine] | 7.59 | 7.11
13 | CS(=O)(=O)NC1CCN(Cc2coc3cc(Oc4nc5ccccc5s4)ccc23)CC1 [Example 363, N-{1-[6-(Benzothiazol-2-yloxy)-benzofuran-3-ylmethyl]-piperidin-4-yl}-methanesulfonamide] | 7.43 | 6.40
14 | c1ccc2sc(Oc3ccc4c(CN5CCOCC5)coc4c3)nc2c1 [Example 165, 2-(3-Morpholin-4-ylmethyl-benzofuran-6-yloxy)-benzothiazole] | 7.02 | 6.08

Further compounds by rising pIC50 [1], results first:

Row | pIC50 [1] | pIC50 [2] | SMILES
15 | 7.72 | 6.62 | c1cnc2nc(Oc3ccc4c(CNC5CC5)coc4c3)sc2c1 [Example 297, Cyclopropyl-[6-(thiazolo[4,5-b]pyridin-2-yloxy)-benzofuran-3-ylmethyl]-amine]
16 | 7.74 | 6.51 | CS(=O)(=O)NCCC1CCN(Cc2coc3cc(Oc4nc5ccccc5s4)ccc23)CC1 [Example 364, N-(2-{1-[6-(Benzothiazol-2-yloxy)-benzofuran-3-ylmethyl]-piperidin-4-yl}-ethyl)-methanesulfonamide]
17 | 7.82 | 8.40 | CC(C)(C)NCc1coc2cc(Oc3nc4ncccc4s3)ccc12 [Example 301, tert-Butyl-[6-(thiazolo[4,5-b]pyridin-2-yloxy)-benzofuran-3-ylmethyl]-amine formate]
18 | 7.85 | 7.05 | CS(=O)(=O)N1CCC(N(Cc2coc3cc(Oc4nc5ncccc5s4)ccc23)C2CC2)CC1 [Example 246, Cyclopropyl-(1-methanesulfonyl-piperidin-4-yl)-[6-(thiazolo[4,5-b]pyridin-2-yloxy)-benzofuran-3-ylmethyl]-amine]
19 | 7.85 | 6.89 | c1ccc(CCN2CCN(Cc3coc4cc(Oc5nc6ncccc6s5)ccc34)CC2)cc1 [Example 291, 2-[3-(4-Phenethyl-piperazin-1-ylmethyl)-benzofuran-6-yloxy]-thiazolo[4,5-b]pyridine formate]
20 | 7.92 | 6.89 | c1cnc2nc(Oc3ccc4c(CN5CCN(C6CC6)CC5)coc4c3)sc2c1 [Example 277, 2-[3-(4-Cyclopropyl-piperazin-1-ylmethyl)-benzofuran-6-yloxy]-thiazolo[4,5-b]pyridine]
21 | 8.00 | 6.08 | FC(F)(F)C1CCN(Cc2cc3ccc(Oc4nc5ncccc5s4)cc3o2)CC1 [Example 191, 2-[2-(4-Trifluoromethyl-piperidin-1-ylmethyl)-benzofuran-6-yloxy]-thiazolo[4,5-b]pyridine formate]
22 | 8.00 | 6.89 | c1ccc(C2CCN(Cc3coc4cc(Oc5nc6ncccc6s5)ccc34)CC2)cc1 [Example 280, 2-[3-(4-Phenyl-piperidin-1-ylmethyl)-benzofuran-6-yloxy]-thiazolo[4,5-b]pyridine formate]
23 | 8.05 | 7.36 | c1cnc2nc(Oc3ccc4c(CN5CCCC6CCCCC65)coc4c3)sc2c1 (stereo not shown) [Example 267, 1-[6-(Thiazolo[4,5-b]pyridin-2-yloxy)-benzofuran-3-ylmethyl]-decahydro-quinoline formate]
24 | 8.05 | 7.39 | CC(=O)N(C(C)C)C1CCN(Cc2coc3cc(Oc4nc5ncccc5s4)ccc23)CC1 [Example 323, N-Isopropyl-N-{1-[6-(thiazolo[4,5-b]pyridin-2-yloxy)-benzofuran-3-ylmethyl]-piperidin-4-yl}-acetamide]
25 | 8.22 | 7.66 | CCN(C(C)=O)C1CCN(Cc2coc3cc(Oc4nc5ncccc5s4)ccc23)CC1 [Example 353, N-Ethyl-N-{1-[6-(thiazolo[4,5-b]pyridin-2-yloxy)-benzofuran-3-ylmethyl]-piperidin-4-yl}-acetamide]
26 | 8.30 | 6.70 | CN(CCC(=O)O)Cc1coc2cc(Oc3nc4ncccc4s3)ccc12 [Example 335, 3-{Methyl-[6-(thiazolo[4,5-b]pyridin-2-yloxy)-benzofuran-3-ylmethyl]-amino}-propionic acid formate]
27 | 8.40 | 7.44 | c1cnc(OC2CCN(Cc3coc4cc(Oc5nc6ncccc6s5)ccc34)CC2)nc1 [Example 217, 2-{3-[4-(Pyrimidin-2-yloxy)-piperidin-1-ylmethyl]-benzofuran-6-yloxy}-thiazolo[4,5-b]pyridine]
28 | 8.52 | 7.17 | O=C(CO)N1CC2CN(Cc3coc4cc(Oc5nc6ncccc6s5)ccc34)CC2C1 (stereo not shown) [Example 355, 2-Hydroxy-1-{5-[6-(thiazolo[4,5-b]pyridin-2-yloxy)-benzofuran-3-ylmethyl]-hexahydro-pyrrolo[3,4-c]pyrrol-2-yl}-ethanone]
29 | 8.70 | 6.44 | CCOC(=O)C1CCN(Cc2coc3cc(Oc4nc5ncccc5s4)ccc23)CC1 [Example 224, 1-[6-(Thiazolo[4,5-b]pyridin-2-yloxy)-benzofuran-3-ylmethyl]-piperidine-4-carboxylic acid ethyl ester]
